Experimental data: patent publication US7781452B2, “Imidazopyridine compound” (Eisai R&D Management Co., Ltd., priority 2004, dated 2010)

How the values were obtained:
CYP1A2 = assay: Cytochrome P450 (CYP) gene induction in human cryopreserved hepatocytes, CYP1A2 mRNA; assay type: in vitro ADME; conditions: for CYP1A2 mRNA induction potency, % of the positive control (100%): 48-hr exposure
Description: (§1) Human cryopreserved hepatocytes purchased from In Vitro Technology were quickly thawed at 37° C. After ice-cold William's E (WE) medium supplemented with 10% FCS, penicillin (100 U/mL), streptomycin (100 μg/mL) and glutamine (2 mM) (WE medium) was gradually added to hepatocytes, the cells were centrifuged at 500 rpm for 5 min at 4° C. The supernatant was removed and the cells were resuspended in WE medium to obtain 5×10^5 cells/mL. The cells were plated into collagen-coated 48-well plates (1×10^5 cells/cm^2) and cultured at 37° C. and 5% CO2 for about 24 hr.
(§2) Medium was replaced with Hepato-STIM (trademark, BD Biosciences) supplemented with EGF, penicillin (100 U/mL), streptomycin (100 μg/mL) and glutamine (2 mM) (HS medium) and the cells were cultured for about 24 hr. At about 48 hr of culture after seeding, the cells were treated with the test compounds and β-naphtoflavone (β-NF, positive control for human CYP1A1 and CYP1A2, SIGMA) prepared by HS medium for about 48 hr. Medium was changed daily. The final concentration of β-NF was set to 10 μM. All compounds were dissolved in dimethylsulfoxide (DMSO, Wako), resulting in a final vehicle concentration of 0.1% (v/v). To the control cells, HS medium containing 0.1% DMSO was added.
(§3) After 48-hr exposure, cells were washed once using PBS, and total RNA was purified using Qiagen RNeasy Mini Kit (Qiagen) according to the manufacturer's instruction. Purified total RNA was then used as template for first strand cDNA synthesis. For reverse transcription (RT) reaction, Oligo dT was employed. The RT reaction was carried using TaqMan Reverse Transcription Reagents (Applied Biosystems) at 25° C. for 10 min followed by 60-min reaction at 48° C., and then the enzyme was inactivated at 95° C. for 5 min in Gene Amp PCR System 9700. The resulting cDNA was subjected to polymerase chain reaction (PCR) in ABI7700 Sequence Detection System (Applied Biosystems). For the mRNA analyses of CYP1A1 and GAPDH, SYBR Green PCR Core Reagents kit (Applied Biosystems) was used, and CYP1A2 mRNA was quantified using TaqMan PCR Core Reagents kit (Applied Biosystems).
(§4) The amount of mRNA of CYP1A1 or CYP1A2 was divided by that of GAPDH. Then, the ratio (fold) of the values obtained in test compounds (X) and positive control (P) against that in control was calculated. The induction potency of test compound (%) was obtained by following equation: Induction potency of test compound (%)=100×(X−1)/(P−1) <Results>

[1] = tested on: Gastric Acid Secretion in Rats; assay: Inhibitory effects on gastric acid secretion in pylorus-ligated, histamine-stimulated rats; assay type: in vivo, rat; conditions: male SD rats, 10 mg/kg into the duodenum, histamine 20 mg/kg subcutaneously, eight hours after administration
Description: Seven-week-old male SD rats fasted from the day before experiments were used. The rats were subjected to celiotomy along the median line under ether anesthesia, and the pylorus was ligated. Test compounds were dissolved or suspended in 0.5% methyl-cellulose solution (solvent) and prepared the concentration of 5 mg/ml. […] Then the abdomen was sutured. Eight hours after the administration of solvent or test compound, rat was sacrificed and stomach was isolated for the measurement of the volume of gastric juice. After the volume of gastric juice was determined, the acid concentration was measured using 0.25 ml of gastric juice by titration against 0.04 mol/l NaOH solution to pH 7.0. The acid output was calculated as (volume of gastric juice)×(acid concentration). The inhibition rate (%) was calculated according to the formula shown below. The number of animals of each experimental group is four. Inhibition rate (%)=100×(A−B)/A • A: acid output in solvent administered group • B: acid output in test compound administered group

CYP1A1 = assay: Cytochrome P450 (CYP) gene induction in human cryopreserved hepatocytes, CYP1A1 mRNA; assay type: in vitro ADME; conditions: for CYP1A1 mRNA induction potency, % of the positive control (100%): 48-hr exposure
Description: as §1, §2, §3, §4

[2] = 10 μM, normalised to GAPDH, vs 0.1% DMSO control

COc1ccnc(C[S+]([O-])c2nc3cc(C)c(OC)nc3[n-]2)c1C.[Na+] (stereo not drawn) [Example 1, 5-Methoxy-2-(((4-methoxy-3-methyl-2-pyridinyl)methyl)sulfinyl)-6-methyl-3H-imidazo[4,5-b]pyridineSodium salt]
CYP1A2 mRNA induction potency, % of the positive control (100%) (CYP1A2; 0.3 μM): 8.36% | CYP1A2 mRNA induction potency, % of the positive control (100%) (CYP1A2; 1 μM): 12.16% | CYP1A2 mRNA induction potency, % of the positive control (100%) (CYP1A2; 3 μM): 11.78% | CYP1A2 mRNA induction potency, % of the positive control (100%) (CYP1A2; 10 μM): 29.18% | Inhibition rate(%) of acid output [1]: 79% | CYP1A1 mRNA induction potency, % of the positive control (100%) (CYP1A1; 0.3 μM): 2.03% | CYP1A1 mRNA induction potency, % of the positive control (100%) (CYP1A1; 1 μM): 8.02% | CYP1A1 mRNA induction potency, % of the positive control (100%) (CYP1A1; 3 μM): 11.27% | CYP1A1 mRNA induction potency, % of the positive control (100%) (CYP1A1; 10 μM): 18.46%

COc1ccnc(C[S+]([O-])c2nc3cc(C)c(OCC(F)(F)F)nc3[n-]2)c1C.[Na+] (stereo not drawn) [Example 2, 2-(((4-Methoxy-3-methyl-2-pyridinyl)methyl]sulfinyl)-6-methyl-5-(2,2,2-trifluoroethoxy)-3H-imidazo[4,5-b]pyridine Sodium salt]
Inhibition rate(%) of acid output [1]: 86%

COc1ccnc(C[S+]([O-])c2nc3cc(C)c(OCC(F)F)nc3[n-]2)c1C.[Na+] (stereo not drawn) [Example 3, 5-(2,2-Difluoroethoxy)-2-(((4-methoxy-3-methyl-2-pyridinyl)methyl)sulfinyl)-6-methyl-3H-imidazo[4,5-b]pyridine Sodium salt]
Inhibition rate(%) of acid output [1]: 85%

O=c1cc(-c2ccccc2)oc2ccc3ccccc3c12 [βNF, β-naphtoflavone, reference compound]
CYP1A2 mRNA induction potency, % of the positive control (100%) (CYP1A2; 10 μM): 100% | CYP1A2 mRNA fold induction as compared with control (figures in parentheses) (CYP1A2; [2]): 14.16 fold | CYP1A1 mRNA induction potency, % of the positive control (100%) (CYP1A1; 10 μM): 100% | CYP1A1 mRNA fold induction as compared with control (figures in parentheses) (CYP1A1; [2]): 79.97 fold
